This note sets out measurements from US10738127B2, “Monoclonal antibodies prevent cell surface protein shedding and block tumor growth” (VERITAS BIOTECNOLOGIA LTDA, priority 2016, dated 2020).

Assay [1] deals with E-cadherin linker segment. The experiment in a line: Titration of immunized mice sera against the E-cadherin linker segment peptides (FIG. 6). Format: binding. Conditions: immunization of mice. An excerpt:
Polyclonal antibodies against synthetic peptides pep_VLS02 (RKAQPVEAGLQIPAC; SEQ ID NO: 4) and pep_VLS03 (VEAGLQIPAC; SEQ ID NO: 3) were produced according to methods known in the art.

For a further assay, the target named is MMP-9 (Homo sapiens, UniProt P14780). The experiment in a line: MMP-9 enzymatic activity / E-cadherin cleavage assay. Format: biochemical. As for the experimental part:
The synthetic peptide pep_VLS02 was used as a competitive inhibitor of MMP-9. The MMP-9 enzymatic activity is reduced in the presence of synthetic peptide (FIG. 10). The inhibitory effect of pep_VLS02 against cleavage of E-cadherin opens a new window for the development of new inhibitors.
On the other hand, when the polyclonal antibody pAb_VLS02 is added to the assay, in the presence of its corresponding peptide, the MMP-9 activity was reestablished (FIG. 10). Thus, pep_VLS02 and its correspondent polyclonal antibody modulate MMP-9 activity and inhibit the E-cadherin cleavage.

Sequence of MMP-9 (P14780 94-707, species assumed): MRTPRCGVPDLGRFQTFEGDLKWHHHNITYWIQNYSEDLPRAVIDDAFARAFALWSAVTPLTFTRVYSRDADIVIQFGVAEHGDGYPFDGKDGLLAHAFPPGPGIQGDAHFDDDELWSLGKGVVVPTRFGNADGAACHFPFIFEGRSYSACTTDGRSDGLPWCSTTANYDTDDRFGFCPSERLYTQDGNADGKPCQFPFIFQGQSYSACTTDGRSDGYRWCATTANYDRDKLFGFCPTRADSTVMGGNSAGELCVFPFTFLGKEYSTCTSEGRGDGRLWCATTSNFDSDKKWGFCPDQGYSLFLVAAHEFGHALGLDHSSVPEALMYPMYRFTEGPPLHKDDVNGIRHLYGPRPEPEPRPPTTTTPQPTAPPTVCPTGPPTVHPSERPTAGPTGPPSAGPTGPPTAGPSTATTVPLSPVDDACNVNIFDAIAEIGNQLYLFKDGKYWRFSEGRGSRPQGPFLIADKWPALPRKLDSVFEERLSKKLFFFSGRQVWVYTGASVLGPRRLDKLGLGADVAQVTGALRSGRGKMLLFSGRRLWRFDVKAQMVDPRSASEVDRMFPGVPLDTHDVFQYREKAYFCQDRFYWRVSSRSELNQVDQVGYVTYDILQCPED

Turning to “RKAQPVEAGLQIPAC [pep_VLS02, synthetic antigenic peptide covering the cleavage site of E-cadherin plus a cysteine residue at the end]”, the immunogenic capacity entry in assay [1] is given as “confirmed the immunogenic capacity”. The “E-cadherin cleavage by a metalloprotease” value with MMP-9 (FIG. 10) was “inhibit E-cadherin cleavage”. For the same sequence, the MMP-9 enzymatic activity result in the assay with MMP-9 (in the presence of synthetic peptide as competitive inhibitor) is “reduced”.

On to “VEAGLQIPAC [pep_VLS03, synthetic antigenic peptide of the E-cadherin linker segment plus a cysteine residue]”, for which the immunogenic capacity entry in assay [1] was “confirmed the immunogenic capacity”.
